Legend:
[1] = test system: caterpillars of diamond-back moth (Plutella maculipennis); assay: Plutella test; assay type: in vivo; settings: cabbage leaves dipped, active compound concentration 0.1 %
Method: To produce a suitable preparation of active compound, 1 part by weight of active compound is mixed with the stated amount of solvent and the stated amount of emulsifier, and the concentrate is diluted with water to the desired concentration.
Cabbage leaves (Brassica oleracea) are treated by being dipped into the preparation of active compound of the desired concentration and are populated with caterpillars of diamond-back moth (Plutella maculipennis) while the leaves are still moist.
After the desired period of time, the kill in % is determined. 100% means that all the caterpillars have been killed; 0% means that none of the caterpillars have been killed.

Coriolus versicolor = assay: Inhibitory test with giant colonies of Basidiomycetes (Coriolus versicolor); assay type: cell-based; settings: after 3 or 7 days at 26° C., vs untreated control; for inhibition at 1 ppm / inhibition at 3 ppm / inhibition at 6 ppm: Trametes versicolor; for inhibition at 1 ppm: read-out: Inhibition of the growth of the hypha in % with Coriolus versicolor at an active compound concentration of 1 ppm; for inhibition at 3 ppm: read-out: Inhibition of the growth of the hypha in % with Coriolus versicolor at an active compound concentration of 3 ppm; for inhibition at 6 ppm: read-out: Inhibition of the growth of the hypha in % with Coriolus versicolor at an active compound concentration of 6 ppm
Method: (§1) Inhibitory Test with Giant Colonies of Basidiomycetes.
(§2) To produce a suitable preparation of active compound, 0.2 parts by weight of active compound are admixed with 99.8 parts by weight of the abovementioned solvent.
(§3) An agar which has been prepared using malt extract peptone is mixed in the liquid state with the preparation of active compound at the particular desired application rate. After the agar has set, the resulting nutrient medium is incubated at 26° C. with pieces of mycelium which had been punched out of colonies of Coniophora puteana or Coriolus versicolor.
(§4) Evaluation is carried out after 3 or 7 days' storage at 26° C. by measuring the growth of the hypha and scoring the resulting inhibition in percent in comparison to the untreated control. 0% means an inhibition of growth which corresponds to that of the untreated control, while an inhibition of growth of 100% means that no growth of the hypha is observed.

Coniophora puteana = assay: Inhibitory test with giant colonies of Basidiomycetes (Coniophora puteana); assay type: cell-based; settings: after 3 or 7 days at 26° C., vs untreated control; for inhibition at 1 ppm: read-out: Inhibition of the growth of the hypha in % with Coniophora puteana at an active compound concentration of 1 ppm; for inhibition at 3 ppm: read-out: Inhibition of the growth of the hypha in % with Coniophora puteana at an active compound concentration of 3 ppm; for inhibition at 6 ppm: read-out: Inhibition of the growth of the hypha in % with Coniophora puteana at an active compound concentration of 6 ppm
Method: as §1, §2, §3, §4

Venturia inaequalis = assay: Venturia test (apple)/protective (Example B, spray liquor concentration); assay type: in vivo; settings: protective, 100 ppm in spray liquor, evaluation 12 days after inoculation
Method: Venturia Test (Apple)/Protective
(§5) To produce a suitable preparation of active compound, 1 part by weight of active compound is mixed with the stated amounts of solvent and emulsifier, and the concentrate is diluted with water to the desired concentration.
To test for protective activity, young plants are sprayed with the preparation of active compound until dew-moist. After the spray-coating has dried on, the plants are inoculated with an aqueous conidia suspension of the causative organism of apple scab Venturia inaequalis and then remain in an incubation cabin at 20° C. and 100% relative atmospheric humidity for 1 day.
(§6) The plants are then placed in a greenhouse at 23° C. and a relative atmospheric humidity of approximately 70%.
Evaluation is carried out 12 days after the inoculation. 0% means an efficacy which corresponds to that of the untreated control, while an efficacy of 100% means that no infection is observed.

Plasmopara viticola = assay: Plasmopara test (grape vines)/protective; assay type: in vivo; settings: protective, application rate 100 g/ha, evaluation 6 days after inoculation
Method: Plasmopara Test (Grape Vines)/Protective
(§7) To produce a suitable preparation of active compound, 1 part by weight of active compound is mixed with the stated amounts of solvent and emulsifier and the concentrate is diluted with water to the desired concentration.
To test for protective activity, young plants are sprayed with the preparation of active compound at the stated application rate. After the spray-coating has dried on, the plants are inoculated with an aqueous spore suspension of Plasmopara viticola and then remain in an incubation cabin at approximately 20° C. and 100% relative atmospheric humidity for 1 day. The plants are subsequently placed in a greenhouse at approximately 21° C. and approximately 90% relative atmospheric humidity for 5 days. The plants are then moistened and placed in an incubation cabin for 1 day.
Evaluation is carried out 6 days after the inoculation. 0% means an efficacy which corresponds to that of the control, while an efficacy of 100% means that no infection is observed.

[2] = test system: R-strain of Pseudocercosporella herpotrichoides; assay: Pseudocercosporella herpotrichoides test; R-strain (wheat)/protective; assay type: in vivo; settings: protective, application rate 250 g/ha, evaluation 21 days after inoculation
Method: Pseudocercosporella herpotrichoides Test; R-Strain (Wheat)/Protective
as §7
To test for protective activity, young plants are sprayed with the preparation of active compound at stated application rates.
After the spray-coating has dried on, the plants are inoculated at the base of the stem with spores of the R-strain of Pseudocercosporella herotrichoides.
The plants are placed in a greenhouse at a temperature of approximately 10° C. and a relative atmospheric humidity of approximately 80%.
Evaluation is carried out 21 days after the inoculation. 0% means an efficacy which corresponds to that of the control, while an efficacy of 100% means that no infection is observed.

Podosphaera leucotricha = assay: Podosphaera test (apple)/protective; assay type: in vivo; settings: protective, 100 ppm in spray liquor, evaluation 10 days after inoculation
Method: Podosphaera Test (Apple)/Protective
as §5
To test for protective activity, young plants are sprayed with the preparation of active compound until dew-moist. After the spray-coating has dried on, the plants are inoculated by dusting with conidia of the causative organism of apple mildew Podosphaera leucotricha.
as §6
Evaluation is carried out 10 days after the inoculation. 0% means an efficacy which corresponds to that of the untreated control, while an efficacy of 100% means that no infection is observed.

Pyrenophora teres = Pyrenophora teres test (barley)/protective; assay type: in vivo; settings: protective, application rate 125 g/ha, evaluation 7 days after inoculation
Method: Pyrenophora teres Test (Barley)/Protective
as §5
To test for protective activity, young plants are sprayed with the preparation of active compound at the stated application rate.
After the spray-coating has dried on, the plants are sprayed with a conidia suspension of Pyrenophora teres.
The plants remain in an incubation cabin at 20° C. and 100% relative atmospheric humidity for 48 hours.
The plants are placed in a greenhouse at a temperature of approximately 20° C. in a relative atmospheric humidity of approximately 80%.
Evaluation is carried out 7 days after the inoculation. 0% means an efficacy which corresponds to that of the untreated control, while an efficacy of 100% means that no infection is observed.

CC1=C(C(=O)Nc2ccccc2OCc2cc(Cl)cc(Cl)c2)SCCO1
Degree of kill in % after 7 d [1]: 100%

Cc1nn(C)cc1C(=O)Nc1ccccc1CSc1ccc(Cl)cc1 [drawing 534]
Degree of kill in % after 7 d [1]: 100%

Cn1cc(C(=O)Nc2ccccc2C=Cc2ccccc2)c(C(F)F)n1 [Example 20]
inhibition at 1 ppm (Coriolus versicolor; 1 ppm in agar): 100% | inhibition at 3 ppm (Coriolus versicolor; 3 ppm in agar): 100% | inhibition at 6 ppm (Coriolus versicolor; 6 ppm in agar): 100% | melting point: 122 °C | inhibition at 1 ppm (Coniophora puteana; 1 ppm in agar): 100% | inhibition at 3 ppm (Coniophora puteana; 3 ppm in agar): 100% | inhibition at 6 ppm (Coniophora puteana; 6 ppm in agar): 100%

O=C(Nc1ccccc1Oc1ccccc1)c1ccccc1C(F)(F)F [drawing 520]
Efficacy in % at an active compound concentration in the spray liquor of 100 ppm (Venturia inaequalis): 83%

Cc1ccc(OCc2ccccc2NC(=O)c2cn(C)nc2C(F)F)c(C)c1 [drawing 526]
Efficacy in % at an active compound concentration in the spray liquor of 100 ppm (Venturia inaequalis): 95%

Cn1cc(C(=O)Nc2ccccc2C=Cc2ccccc2)c(C(F)(F)F)n1 [Example 16]
inhibition at 1 ppm (Coriolus versicolor; 1 ppm in agar): 100% | inhibition at 3 ppm (Coriolus versicolor; 3 ppm in agar): 100% | inhibition at 6 ppm (Coriolus versicolor; 6 ppm in agar): 100% | melting point: 117 °C | inhibition at 1 ppm (Coniophora puteana; 1 ppm in agar): 80% | inhibition at 3 ppm (Coniophora puteana; 3 ppm in agar): 100% | inhibition at 6 ppm (Coniophora puteana; 6 ppm in agar): 100%

Cn1cc(C(=O)Nc2ccccc2C=Cc2ccccc2)c(C(F)(F)F)n1 [drawing 523]
Efficacy in % at an active compound concentration in the spray liquor of 100 ppm (Venturia inaequalis): 97%

Cc1nc(C(F)(F)F)c(C(=O)Nc2ccccc2CSc2ccccc2)s1 [drawing 531]
Degree of kill in % after 7 d [1]: 100%

O=C(Nc1ccccc1OCc1ccccc1)C1=C(C(F)(F)F)OCCS1
Degree of kill in % after 7 d [1]: 90%

Cc1ccc(OCc2ccccc2NC(=O)c2cn(C)nc2C(F)F)c(C)c1 [Example 50]
inhibition at 1 ppm (Coriolus versicolor; 1 ppm in agar): 100% | inhibition at 3 ppm (Coriolus versicolor; 3 ppm in agar): 100% | inhibition at 6 ppm (Coriolus versicolor; 6 ppm in agar): 100% | melting point: 120 °C | inhibition at 1 ppm (Coniophora puteana; 1 ppm in agar): 100% | inhibition at 3 ppm (Coniophora puteana; 3 ppm in agar): 100% | inhibition at 6 ppm (Coniophora puteana; 6 ppm in agar): 100%

Cc1ccc(SCc2ccccc2NC(=O)c2cn(C)nc2C(F)F)cc1 [Example 46]
inhibition at 1 ppm (Coriolus versicolor; 1 ppm in agar): 100% | inhibition at 3 ppm (Coriolus versicolor; 3 ppm in agar): 100% | inhibition at 6 ppm (Coriolus versicolor; 6 ppm in agar): 100% | melting point: 108 °C | inhibition at 1 ppm (Coniophora puteana; 1 ppm in agar): 80% | inhibition at 3 ppm (Coniophora puteana; 3 ppm in agar): 100% | inhibition at 6 ppm (Coniophora puteana; 6 ppm in agar): 100%

Cn1cc(C(=O)Nc2ccccc2C=Cc2ccccc2)c(C(F)F)n1 [drawing 524]
Efficacy in % at an active compound concentration in the spray liquor of 100 ppm (Venturia inaequalis): 100%

Cc1ccc(SCc2ccccc2NC(=O)c2ccccc2C(F)(F)F)cc1
Efficacy in % (Plasmopara viticola): 95%

C/C(=N\OCc1ccccc1NC(=O)c1cn(C)nc1C)c1cccc(C(F)(F)F)c1
Efficacy in % [2]: 90%

Cc1nc(C(F)(F)F)c(C(=O)Nc2ccccc2Oc2ccccc2)s1
Efficacy in % at an active compound concentration in the spray liquor of 100 ppm (Venturia inaequalis): 94%

Cc1ccc(SCc2ccccc2NC(=O)c2cn(C)nc2C(F)F)cc1 [drawing 525]
Efficacy in % at an active compound concentration in the spray liquor of 100 ppm (Venturia inaequalis): 100%

Cc1ccccc1OCc1ccccc1NC(=O)c1ccccc1C(F)(F)F
Degree of kill in % after 7 d [1]: 100%

Cc1nn(C)cc1C(=O)Nc1ccccc1Oc1ccccc1 [drawing 519]
Efficacy in % at an active compound concentration in the spray liquor of 100 ppm (Podosphaera leucotricha): 96%

Cc1cccc(COc2ccccc2NC(=O)c2cn(C)nc2C)c1
Degree of kill in % after 7 d [1]: 100%

CC1=C(C(=O)Nc2ccccc2CSc2ccccc2)SCCO1
Efficacy in % (Plasmopara viticola): 90%

Cc1ccc(SCc2ccccc2NC(=O)c2cn(C)nc2C(F)F)cc1 [drawing 529]
Efficacy in % (Pyrenophora teres): 75%

Cc1nn(C)cc1C(=O)Nc1ccccc1Oc1ccccc1 [drawing 521]
Efficacy in % at an active compound concentration in the spray liquor of 100 ppm (Venturia inaequalis): 83%

O=C(Nc1ccccc1Oc1ccccc1)c1ccccc1C(F)(F)F [drawing 518]
Efficacy in % at an active compound concentration in the spray liquor of 100 ppm (Podosphaera leucotricha): 100%

Cc1nc(C(F)(F)F)c(C(=O)Nc2ccccc2CSc2ccc(Cl)cc2)s1 [Example 85]
Inhibition of the growth of the hypha in % with Coriolus versicolor at an active compound concentration of 1 ppm (Coriolus versicolor; 1 ppm in agar): 70% | Inhibition of the growth of the hypha in % with Coriolus versicolor at an active compound concentration of 3 ppm (Coriolus versicolor; 3 ppm in agar): 70% | Inhibition of the growth of the hypha in % with Coriolus versicolor at an active compound concentration of 6 ppm (Coriolus versicolor; 6 ppm in agar): 90% | Inhibition of the growth of the hypha in % with Coniophora puteana at an active compound concentration of 1 ppm (Coniophora puteana; 1 ppm in agar): 70% | Inhibition of the growth of the hypha in % with Coniophora puteana at an active compound concentration of 3 ppm (Coniophora puteana; 3 ppm in agar): 80% | Inhibition of the growth of the hypha in % with Coniophora puteana at an active compound concentration of 6 ppm (Coniophora puteana; 6 ppm in agar): 80%

Cc1cccc(OCc2ccccc2NC(=O)c2cn(C)nc2C(F)(F)F)c1 [drawing 527]
Efficacy in % at an active compound concentration in the spray liquor of 100 ppm (Venturia inaequalis): 90%

Cc1ccc(OCc2ccccc2NC(=O)c2cn(C)nc2C(F)F)c(C)c1 [drawing 532]
Degree of kill in % after 7 d [1]: 100%

Cn1cc(C(=O)Nc2ccccc2C=Cc2ccccc2)c(C(F)F)n1 [drawing 528]
Efficacy in % (Pyrenophora teres): 83%

Cn1cc(C(=O)Nc2ccccc2Oc2ncnc(F)c2F)c(C(F)(F)F)n1 [Example 3, 2-(4,5-difluoro-pyrimdyl-6-oxy)-1-methyl-3-trifluoro-methyl-1-pyrazole-4-carboxanilide]
melting point: 197 °C

Reference: patent US6716881B2, “Carbanilides used as pesticides” (Bayer Aktiengesellschaft, priority 1996, dated 2004)
